The source made the active and inactive calls.
Key:
Kallikrein-7 = Kallikrein-7 (Homo sapiens, UniProt P49862); test: Fluorescence Intensity-based biochemical primary high throughput dose response assay to identify activators of kallikrein-7 (K7) zymogen.
[1] = optical artefact potency, substrate without enzyme – biochemical, fluorescence intensity, triplicate, artefact control for kallikrein-7 zymogen activator project, dose response (AID 720493)
[2] = HepG2 cell cytotoxicity, dose response, cytotoxicity control for non-replicating M. tuberculosis project (AID 489018); format: functional; details: Mycobacterium tuberculosis
cells [3] = format: functional
[4] = HGIII-sPLA2 enzyme inhibition potency – biochemical, QFRET, IC50, dose response (AID 743457);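 note: green fluorescence rise as the enzyme cleaves BODIPY PC-A2 in liposomes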
[5] = biological target: T1, Short transient receptor potential channel 4 (Mus musculus, UniProt Q9QUQ5); test: calcium entry via TRPC4 opening agents – cell-based, HEK293 TRPC4/mu-opioid, Fluo-4 calcium, dose response (AID 434937); format: functional
T1 sequence (Q9QUQ5 whole entry): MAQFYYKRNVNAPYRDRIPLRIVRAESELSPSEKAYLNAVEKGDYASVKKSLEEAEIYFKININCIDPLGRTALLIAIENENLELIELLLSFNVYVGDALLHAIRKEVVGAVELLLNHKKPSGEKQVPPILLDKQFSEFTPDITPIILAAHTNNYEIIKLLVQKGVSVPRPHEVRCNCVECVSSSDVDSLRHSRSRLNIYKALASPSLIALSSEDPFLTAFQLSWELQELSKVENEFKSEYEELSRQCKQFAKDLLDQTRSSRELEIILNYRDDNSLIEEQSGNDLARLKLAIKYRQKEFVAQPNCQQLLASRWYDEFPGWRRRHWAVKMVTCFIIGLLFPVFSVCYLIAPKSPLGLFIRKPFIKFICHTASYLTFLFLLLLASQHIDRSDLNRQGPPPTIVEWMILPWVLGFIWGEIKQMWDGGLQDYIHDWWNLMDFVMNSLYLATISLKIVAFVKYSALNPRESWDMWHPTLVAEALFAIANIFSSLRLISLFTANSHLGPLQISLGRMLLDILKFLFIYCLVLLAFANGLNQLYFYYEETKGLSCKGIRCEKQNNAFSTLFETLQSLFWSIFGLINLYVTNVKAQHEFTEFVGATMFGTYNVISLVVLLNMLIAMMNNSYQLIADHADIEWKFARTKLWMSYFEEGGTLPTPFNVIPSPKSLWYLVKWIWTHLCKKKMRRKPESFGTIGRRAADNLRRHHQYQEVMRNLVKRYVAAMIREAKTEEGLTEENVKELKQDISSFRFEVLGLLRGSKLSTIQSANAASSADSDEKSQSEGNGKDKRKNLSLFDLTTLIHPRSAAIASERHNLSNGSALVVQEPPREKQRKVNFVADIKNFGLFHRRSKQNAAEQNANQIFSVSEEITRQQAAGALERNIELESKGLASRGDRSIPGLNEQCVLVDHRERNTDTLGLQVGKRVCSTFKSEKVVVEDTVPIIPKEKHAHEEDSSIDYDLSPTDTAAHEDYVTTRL

cells [6] = details: A549
[7] = viability loss in HepG2 liver cells – cell-based, ATP luminescence, cherry-pick, set 6, cytotoxicity control, dose response (AID 1053125); format: functional
Vero [8] = test: cells; format: functional; details: Chlorocebus sabaeus
[9] = THP-1 cell cytotoxicity, dose response, cytotoxicity control for non-replicating M. tuberculosis project (AID 489025); format: functional
[10] = Vero E6 cell cytotoxicity, dose response, cytotoxicity control for non-replicating M. tuberculosis project, secondary assay (AID 492998); format: functional, VeroE6; details: Vero C1008
cells [11] = details: HEK293
Vero [12] = test: cells; format: functional, cell-based; details: Chlorocebus sabaeus
[13] = biological target: NAD-dependent protein deacylase sirtuin-5, mitochondrial (Homo sapiens, UniProt Q9NXA8); test: sirtuin-5 deacylation blockers, concentration series – biochemical, fluorescence imaging, cherry-pick, set 5, dose response (AID 720591);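 note: desuccinylation of succinyl peptide AMC substrate read as fluorescence after trypsin release; potency of inhibitors that lower fluorescence and may act on trypsin instead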
[14] = biological target: DNA (cytosine-5)-methyltransferase 1 (Homo sapiens, UniProt P26358); test: inhibition of DNA methylation by DNMT1 – biochemical, fluorescent molecular beacon, confirmation (AID 602386); format: functional
[15] = HEK-293T viability loss after treatment – luminescence, T-cell screen hits, cytotoxicity control for TCR NF-kB inhibitor project, dose response (AID 489026); format: functional, cell-based;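 note: cells exposed to compound about 14 hours before the viability readout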
BJ [16] = test: BJ-TERT-LT-ST fibroblast viability loss – cell-based, RAS-independent, luminescence, dose response (AID 1935); format: functional; details: Homo sapiens;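 note: BJ fibroblasts immortalized with TERT plus LT and ST oncogenes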
[17] = DRD fibroblast viability loss – cell-based, non-viral oncogenic, luminescence, dose response (AID 1934); format: functional; details: Homo sapiens
[18] = Luminescence Cell-Based Dose Response HTS to Identify Inhibitors of 5'UTR Stem-Loop Driven Prion Protein mRNA Translation in H4 Neuroglioblastoma Cells. [Related pubchem assays: 1827 (Project Summary), 1813 (Primary HTS)]; format: functional
BJ [19] = test: BJ-TERT fibroblast viability loss – cell-based, RAS-independent, luminescence, dose response (AID 1933); format: functional; details: Homo sapiens
[20] = toxicity toward HepG2 hepatoma cells – cell-based, dry powder samples, cytotoxicity control, dose response (AID 720568); format: functional
BJ [21] = test: cells; format: functional, cell-based; details: Homo sapiens
[22] = alpha-synuclein stem-loop luciferase translation blockers – H4 neuroglioma cells, luminescence, confirmation (AID 1988); format: functional, cell-based
BJ [23] = test: growth inhibition of engineered Ras-driven BJ cells – cell-based, alamar blue fluorescence, cherrypicked samples, dose response (AID 2631); format: functional; details: Homo sapiens;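 note: confirmatory dose-response assay in RAS-dependent BJ fibroblasts engineered with TERT, LT and ST, with cytotoxicity read by fluorescence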
[24] = luciferase reporter signal suppression in cells – H4 neuroglioma cells, luminescence, dose response (AID 1990); format: functional, cell-based
[25] = toxicity toward HEK293 cells – cell-based, dry powder samples, cytotoxicity control, dose response (AID 720567); format: functional
[26] = toxicity to human hepatoma HepG2 cells – cell-based, cherry-picked samples, cytotoxicity control, dose response (AID 1159577); format: functional
[27] = activation of miR-122 Renilla sensor silencing – cell-based, Huh7 psiCHECK-miR122, Renilla luciferase, cherry-picked, dose response (AID 651956); format: functional;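 note: huh7 hepatoma cells stably carrying a psiCHECK-2 miR-122 sensor plasmid; renilla luciferase signal reporting endogenous miR-122 activity after 48 h compound exposure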
[28] = reduced cellular PGC1a acetyl-lysine signal – cell-based, cherry-picked samples, dose response (AID 720514); format: functional;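 note: potency may reflect raised or lowered acetylation signal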
[29] = general mammalian cell viability loss – activator set, cherry-pick, cytotoxicity control for miR-122 modulator project, dose response (AID 720690); format: functional, cell-based;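 note: HEK293T human cells scored for general mammalian cytotoxicity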
[30] = P. falciparum Dd2 growth inhibitors, dose response, SYBR Green, cherry-picked samples (AID 1159567); format: functional, cell-based
[31] = anti-trypanosomal activity in BESM host cells – imaging, CA-I/72 strain, bovine embryo skeletal muscle, dry powder, dose response (AID 651885); format: functional, cell-based
[32] = blockers of HIV-1 envelope-mediated cell-cell fusion – cherry-pick, dose response (AID 652057); format: functional, cell-based
[33] = T. cruzi growth inhibition in host cells, dose response, cell-based, plate reader, dry powder, set 2 (AID 652275); format: functional
[34] = HIV-1 AD8 envelope cell-cell fusion blockers – cherry-pick, dose response (AID 652062); format: functional, cell-based;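 note: luciferase signal from cell-cell fusion driven by HIV-1 clade B AD8 Env; potency is for inhibitors of fusion seen as a drop in luminescence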
[35] = Trypanosoma cruzi replication inhibitors in host cells – cell-based, plate reader, dry powder samples, dose response (AID 651845); format: functional
[36] = growth inhibition of replicating M. tuberculosis, dose response, counter-screen, dry powder, IC90 (AID 651617); format: functional; details: Mycobacterium tuberculosis
[37] = inhibitors of non-replicating M. tuberculosis, dose response, luciferase, dry powder (AID 651619); format: functional; details: Mycobacterium tuberculosis
[38] = inhibitors of non-replicating M. tuberculosis, dose response, luciferase, dry powder (AID 651620); format: functional; details: Mycobacterium tuberculosis
[39] = HepG2 hepatoma cell viability loss – plate reader, dry powder, cytotoxicity control, dose response (AID 651947); format: functional, cell-based
[40] = YAP1 overexpression rescue of CTGF inhibition – DLD1 cells, RT-qPCR, cherry-pick, mechanism study for YAP1 pathway inhibitor project, dose response (AID 1053127); format: functional, cell-based; details: DLD-1
[41] = CTGF mRNA reduction in DLD1 cells – cell-based, DLD1 colon cancer, RT-qPCR, cherry-pick, dose response (AID 1053122); format: functional; details: Cancer cell lines
[42] = viability loss in A549 lung cells – cell-based, 24 h, CellTiter-Glo luminescence, cherry-picks, cytotoxicity control, dose response (AID 1053115); format: functional; details: A549, 24 h

Chain of DNA (cytosine-5)-methyltransferase 1 (P26358 whole entry): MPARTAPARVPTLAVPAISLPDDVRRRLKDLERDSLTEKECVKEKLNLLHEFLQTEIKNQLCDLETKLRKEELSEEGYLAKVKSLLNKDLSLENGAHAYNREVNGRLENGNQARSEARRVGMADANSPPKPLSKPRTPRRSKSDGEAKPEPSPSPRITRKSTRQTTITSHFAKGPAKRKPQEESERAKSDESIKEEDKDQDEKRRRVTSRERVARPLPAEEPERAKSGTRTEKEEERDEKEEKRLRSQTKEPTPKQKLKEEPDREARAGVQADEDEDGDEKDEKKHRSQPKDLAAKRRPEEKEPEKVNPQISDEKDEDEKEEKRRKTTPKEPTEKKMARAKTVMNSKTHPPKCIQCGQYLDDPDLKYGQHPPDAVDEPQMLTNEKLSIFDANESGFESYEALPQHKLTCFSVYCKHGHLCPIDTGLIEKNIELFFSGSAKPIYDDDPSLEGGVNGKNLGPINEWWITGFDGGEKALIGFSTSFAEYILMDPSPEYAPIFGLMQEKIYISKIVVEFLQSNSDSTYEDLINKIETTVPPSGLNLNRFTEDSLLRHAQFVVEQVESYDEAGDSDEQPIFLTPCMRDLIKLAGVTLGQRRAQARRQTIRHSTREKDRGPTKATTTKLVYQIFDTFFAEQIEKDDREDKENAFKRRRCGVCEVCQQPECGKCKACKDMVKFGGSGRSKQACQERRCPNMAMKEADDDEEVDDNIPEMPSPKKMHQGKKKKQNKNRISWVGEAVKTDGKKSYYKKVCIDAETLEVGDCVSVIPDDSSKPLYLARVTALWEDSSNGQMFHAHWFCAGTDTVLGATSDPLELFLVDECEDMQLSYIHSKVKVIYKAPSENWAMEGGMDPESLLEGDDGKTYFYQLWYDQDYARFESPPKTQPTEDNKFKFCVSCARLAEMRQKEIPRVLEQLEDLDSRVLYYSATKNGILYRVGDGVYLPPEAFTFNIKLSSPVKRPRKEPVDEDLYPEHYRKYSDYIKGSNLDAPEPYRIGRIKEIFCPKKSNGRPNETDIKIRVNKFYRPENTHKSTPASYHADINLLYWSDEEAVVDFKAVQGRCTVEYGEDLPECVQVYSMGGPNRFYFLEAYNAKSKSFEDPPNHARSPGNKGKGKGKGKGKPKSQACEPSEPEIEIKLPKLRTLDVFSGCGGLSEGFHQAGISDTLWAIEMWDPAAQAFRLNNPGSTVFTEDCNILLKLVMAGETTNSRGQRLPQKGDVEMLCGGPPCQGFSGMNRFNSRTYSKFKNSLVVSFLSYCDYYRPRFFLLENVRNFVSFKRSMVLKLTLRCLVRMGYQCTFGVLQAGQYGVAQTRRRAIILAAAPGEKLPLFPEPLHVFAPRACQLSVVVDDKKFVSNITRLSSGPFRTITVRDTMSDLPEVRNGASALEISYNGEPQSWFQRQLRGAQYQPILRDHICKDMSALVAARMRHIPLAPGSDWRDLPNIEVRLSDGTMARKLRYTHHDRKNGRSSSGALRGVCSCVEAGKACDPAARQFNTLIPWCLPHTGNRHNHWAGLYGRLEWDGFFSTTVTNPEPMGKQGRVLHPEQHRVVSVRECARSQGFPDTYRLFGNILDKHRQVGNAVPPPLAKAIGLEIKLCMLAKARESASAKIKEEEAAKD
Chain of Kallikrein-7 (P49862 whole entry): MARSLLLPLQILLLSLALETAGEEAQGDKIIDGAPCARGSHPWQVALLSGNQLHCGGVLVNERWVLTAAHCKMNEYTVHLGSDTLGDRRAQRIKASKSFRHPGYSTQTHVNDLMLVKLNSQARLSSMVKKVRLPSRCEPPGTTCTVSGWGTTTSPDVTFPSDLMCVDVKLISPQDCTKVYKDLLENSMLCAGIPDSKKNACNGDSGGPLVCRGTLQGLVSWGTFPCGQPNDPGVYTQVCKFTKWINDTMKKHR
Chain of NAD-dependent protein deacylase sirtuin-5, mitochondrial (Q9NXA8 whole entry): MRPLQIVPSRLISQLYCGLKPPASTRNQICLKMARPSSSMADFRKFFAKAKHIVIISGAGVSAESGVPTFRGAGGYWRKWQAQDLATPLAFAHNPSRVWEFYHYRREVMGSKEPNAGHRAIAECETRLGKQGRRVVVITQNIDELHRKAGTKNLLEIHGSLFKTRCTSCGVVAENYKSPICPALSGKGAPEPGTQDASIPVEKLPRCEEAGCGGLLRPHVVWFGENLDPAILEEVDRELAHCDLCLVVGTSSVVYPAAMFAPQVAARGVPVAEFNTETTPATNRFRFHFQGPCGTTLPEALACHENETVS

## O=C1c2ccccc2NC(c2cccnc2)N1c1ccccc1F (stereo not drawn)
Kallikrein-7
  EC50: > 69.5 µM (inactive)
[1]
  EC50: > 7.72 µM (active)

## CCCOc1ccc(C(=O)NNC(=S)NC(=O)c2ccco2)cc1
[2]
  CC50: 17.4 µM (active)
Cells [3]
  IC50: 2.55 µM (active)
[4]
  IC50: 44 µM (inactive)
[5]
  EC50: 5.96 µM (active)
Cells [6]
  AC50: 36.8 µM (active)
[7]
  AC50: > 52 µM (inactive)
Vero [8]
  CC50: 20.7 µM (active)
[9]
  CC50: 7.6 µM (active)
[10]
  CC50: 8.73 µM (active)
Cells [11]
  AC50: 42.2 µM (active)
Vero [12]
  IC50: > 25 µM (active)

## Cc1ccc(S(=O)(=O)N2[C@@H](c3ccc(C(C)(C)C)cc3)C(C(=O)O)=CC[C@H]2c2ccc(C(C)C)cc2)cc1
[13]
  AC50: 17.5 µM (active)
[14]
  IC50: 5.04 µM (active)

## CC(=O)c1ccc(Oc2cc(C)nc(-n3nc(C)cc3C)n2)cc1
[15]
  IC50: > 80 µM (inactive)
BJ [16]
  EC50: 1.45 µM (active)
[17]
  EC50: 917 nM (active)
[18]
  EC50: 339 nM (active)
BJ [19]
  EC50: 1.95 µM (active)
[20]
  AC50: > 30 µM (inactive)
BJ [21]
  EC50: 63.8 µM (inconclusive)
[22]
  EC50: 440 nM (active)
BJ [23]
  EC50: 264 nM (active)
[24]
  EC50: 4.5 µM (active)
[25]
  AC50: 15.8 µM (active)

## O=C(Nc1ccccc1F)N1CCCCN2[C@@H](CO)[C@@H](c3ccc(C#Cc4ccccc4)cc3)[C@@H]2C1
[26]
  AC50: 9.78 µM (active)
[27]
  AC50: 8.65 µM (active)
[28]
  AC50: 15.9 µM (active)
[29]
  AC50: 7.45 µM (active)
[30]
  AC50: 2.13 µM (active)

## C[C@@H]1CN([C@H](C)CO)C(=O)c2cccc(NC(=O)c3ccncc3)c2O[C@H]1CN(C)CC1CCCCC1
[31]
  IC50: 961 nM (active)
[32]
  AC50: 884 nM (active)
[33]
  AC50: 303 nM (active)
[34]
  AC50: 4.84 µM (active)
[35]
  AC50: 391 nM (active)

## c1ccc(Cn2cc(CSc3nnc(C4CCC4)o3)nn2)cc1
[36]
  IC90: 250 µM (active)
[37]
  IC90: 4 µM (active)
[38]
  IC90: 4 µM (active)

## c1ccc(CSc2nnc(-c3cscn3)o2)cc1
[39]
  AC50: 34.4 µM (active)

## C[C@@H]1C/C=C/C[C@H](c2ccc(F)cc2)NC(=O)[C@@H](Cc2ccccc2)N(C)C(=O)c2ccccc2O1.C[C@@H]1C/C=C\C[C@H](c2ccc(F)cc2)NC(=O)[C@@H](Cc2ccccc2)N(C)C(=O)c2ccccc2O1
[40]
  AC50: 20.9 µM (active)
[41]
  AC50: 4.01 µM (active)

## CN1c2ccc(-c3ccc(C#N)cc3)cc2[C@H]2[C@H](CCN2C(=O)C2CCCCC2)[C@@H]1CO
[42]
  AC50: 36.2 µM (active)

— ChEMBL document CHEMBL1201862, “PubChem BioAssay data set” (2004)
